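Where inhibition never reached the appropriate level, the endpoint shown equals the highest concentration tested. Otherwise, values were interpolated linearly from a five-concentration, 48-hour dose response in 96-well plates. GI50 = concentration required for 50% inhibition of growth. The concentration for full growth arrest is given as TGI.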
Legend:
Assay in all cases: inhibition of tumour cell growth, NCI panel, 48 h
[1] = system: SR leukemia
[2] = system: HOP-92 NSCLC
[3] = system: MOLT-4 leukemia
[4] = system: CAKI-1 renal
[5] = system: CCRF-CEM leukemia
[6] = system: HT29 colon
[7] = system: ACHN renal
[8] = system: K-562 leukemia
[9] = system: HL-60(TB) leukemia
[10] = system: COLO 205 colon
[11] = system: HOP-62 NSCLC
[12] = system: NCI-H23 lung
[13] = system: OVCAR-3 ovarian
[14] = system: SW-620 colon
[15] = system: U251 CNS
[16] = system: HS 578T breast
[17] = system: SNB-19 CNS
[18] = system: PC-3 prostate
[19] = system: SK-MEL-2 melanoma
[20] = system: SF-268 CNS
[21] = system: M14 melanoma
[22] = system: SK-MEL-5 melanoma
[23] = system: SK-MEL-28 melanoma
[24] = system: MALME-3M melanoma
[25] = system: IGROV1 ovarian
[26] = system: MDA-MB-231 breast
[27] = system: UACC-257 melanoma
[28] = system: SK-OV-3 ovarian
[29] = system: HCT-15 colon
[30] = system: OVCAR-8 ovarian
[31] = system: NCI/ADR-RES ovarian
[32] = system: UO-31 renal
[33] = system: SF-539 CNS
[34] = system: UACC-62 melanoma
[35] = system: NCI-H226 lung
[36] = system: A549 NSCLC
[37] = system: 786-0 renal
[38] = system: EKVX NSCLC
[39] = system: A498 renal
[40] = system: HCT-116 colon
[41] = system: SNB-75 CNS
[42] = system: KM12 colon
[43] = system: RXF 393 renal
[44] = system: DU-145 prostate
[45] = system: OVCAR-4 ovarian
[46] = system: MCF7 breast
[47] = system: LOX IMVI melanoma
[48] = system: MDA-MB-435
[49] = system: HCC-2998 colon
[50] = system: SF-295 CNS
[51] = system: RPMI-8226 leukemia
[52] = system: OVCAR-5 ovarian
[53] = system: TK-10 renal

With `COc1ccc2[nH]c3c(c2c1)CCN[C@]31CS[C@@H]2c3c(OC(C)=O)c(C)c4c(c3[C@H](COC1=O)N1[C@@H]2[C@H]2c3c(cc(C)c(OC)c3O)C[C@@H]([C@@H]1O)N2C)OCO4` the TGI [1] was over 100 µM, the TGI [2] was 0.0132 µM and the TGI [3] was over 100 µM. The TGI [4] was 1.68 µM, the TGI [5] was over 100 µM and the TGI [6] was over 100 µM. It also gave a TGI [7] of 1.12 µM and a TGI [8] of over 100 µM.
`Cc1ccc(/C=C2\CN(C(=O)C(Cl)Cl)C/C(=C\c3ccc(C)cc3)C2=O)cc1` showed a GI50 [1] of 0.11 µM, a TGI [1] of over 100 µM and a GI50 [9] of 0.25 µM. It also gave a TGI [9] of 1.33 µM, a GI50 [10] of 0.241 µM and a TGI [10] of 0.695 µM. For the same compound, the GI50 [2] was 1.47 µM, the TGI [2] was 3.95 µM and the GI50 [11] was 0.298 µM. The TGI [11] was 1.28 µM, the GI50 [12] was 0.221 µM and the TGI [12] was 0.478 µM. The GI50 [13] was 0.209 µM, the TGI [13] was 0.483 µM and the GI50 [14] was 0.0554 µM. The TGI [14] was 0.234 µM, the GI50 [15] was 0.143 µM and the TGI [15] was 0.334 µM. It also gave a GI50 [16] of 0.343 µM, a TGI [16] of 3.71 µM and a GI50 [17] of 0.286 µM. The TGI [17] was 1.03 µM, the GI50 [18] was 0.209 µM and the TGI [18] was 0.672 µM. For the same compound, the GI50 [19] was 1.8 µM, the TGI [19] was 5.5 µM and the GI50 [20] was 0.331 µM. The TGI [20] was 2.43 µM, the GI50 [21] was 0.261 µM and the TGI [21] was 0.784 µM. It also gave a GI50 [22] of 0.445 µM, a TGI [22] of 1.53 µM and a GI50 [23] of 0.319 µM. The TGI [23] was 1.19 µM, the GI50 [24] was 0.35 µM and the TGI [24] was 2.04 µM. The GI50 [25] was 0.18 µM, the TGI [25] was 0.367 µM and the GI50 [26] was 0.337 µM. The TGI [26] was 1.57 µM, the GI50 [27] was 0.346 µM and the TGI [27] was 3.16 µM. For the same compound, the GI50 [28] was 1 µM, the TGI [28] was over 100 µM and the GI50 [29] was 0.185 µM. For the same compound, the TGI [29] was 0.638 µM, the GI50 [30] was 0.357 µM and the TGI [30] was over 100 µM. It also gave a GI50 [31] of 0.341 µM, a GI50 [32] of 0.158 µM and a TGI [32] of 0.308 µM. For the same compound, the GI50 [33] was 0.227 µM, the TGI [33] was 0.567 µM and the GI50 [4] was 0.273 µM. For the same compound, the TGI [4] was 1.01 µM, the GI50 [34] was 0.237 µM and the TGI [34] was 0.632 µM. The GI50 [35] was 0.245 µM, the TGI [35] was 0.622 µM and the GI50 [36] was 0.293 µM. The GI50 [37] was 0.194 µM, the TGI [37] was 0.397 µM and the GI50 [38] was 0.348 µM. The TGI [38] was 2.31 µM, the GI50 [5] was 0.11 µM and the TGI [5] was over 100 µM. For the same compound, the GI50 [39] was 0.203 µM, the TGI [39] was 0.79 µM and the GI50 [40] was 0.0654 µM. For the same compound, the TGI [40] was 0.194 µM, the GI50 [41] was 0.573 µM and the TGI [41] was 2.9 µM. For the same compound, the GI50 [6] was 0.241 µM, the GI50 [7] was 0.244 µM and the TGI [7] was 0.62 µM. The GI50 [42] was 0.193 µM, the TGI [42] was 0.48 µM and the GI50 [43] was 0.216 µM. It also gave a TGI [43] of 0.507 µM, a GI50 [44] of 0.326 µM and a TGI [44] of 1.28 µM. It also gave a GI50 [45] of 0.322 µM, a TGI [45] of over 100 µM and a GI50 [46] of 0.0546 µM. The TGI [46] was 0.836 µM, the GI50 [47] was 0.0621 µM and the TGI [47] was 0.199 µM. For the same compound, the GI50 [48] was 0.197 µM, the TGI [48] was 0.408 µM and the GI50 [49] was 0.176 µM. It also gave a TGI [49] of 0.33 µM, a GI50 [50] of 0.223 µM and a TGI [50] of 0.665 µM. For the same compound, the GI50 [51] was 0.0322 µM, the TGI [51] was 0.484 µM and the GI50 [8] was 0.142 µM. It also gave a TGI [8] of over 100 µM, a GI50 [52] of 0.333 µM and a TGI [52] of 1.46 µM. The GI50 [53] was 0.57 µM and the TGI [53] was 6.04 µM.
